Assay results reported in PubChem BioAssay (NCI).
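Method: 48-hour compound exposure of cells in 96-well plates, five concentrations, linear interpolation of endpoints. The concentration for full growth arrest is given as TGI.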 Where a SMILES comes first, the peptide text is derived from it. [ ]: non-standard residue; d: D form. The star is where a group is joined. Cbz = O=C(OCc1ccccc1)*; Boc = CC(C)(C)OC(=O)*; Aib = CC(C)(N)C(=O)O; OBn = c1ccc(CO*)cc1; OtBu = CC(C)(C)O*; βAla = NCCC(=O)O

Tests used:
Test in all cases: NCI anticancer screen, dose series, 48 h
IGROV1 ovarian = system: IGROV1 ovarian
MDA-N = system: MDA-N
SF-268 CNS = system: SF-268 CNS
K-562 leukemia = system: K-562 leukemia
SK-MEL-28 melanoma = system: SK-MEL-28 melanoma
NCI/ADR-RES ovarian = system: NCI/ADR-RES ovarian
HL-60(TB) leukemia = system: HL-60(TB) leukemia
SK-MEL-5 melanoma = system: SK-MEL-5 melanoma
SNB-75 CNS = system: SNB-75 CNS

## O=C1[C@@H]2Cc3c([nH]c4ccccc34)C(C3CCCCC3)N2C(=O)[C@@H]2CCCN12 (stereo not given in full)
IGROV1 ovarian
  TGI: > 100 µM
MDA-N
  TGI: > 100 µM
SF-268 CNS
  TGI: > 100 µM
K-562 leukemia
  TGI: > 100 µM
SK-MEL-28 melanoma
  TGI: > 100 µM
NCI/ADR-RES ovarian
  TGI: 78.7 µM
HL-60(TB) leukemia
  TGI: 59.2 µM
SK-MEL-5 melanoma
  TGI: 35.7 µM

## CSc1nncc(-c2cc3c(c(SC)n2)CCC3)n1
IGROV1 ovarian
  TGI: 10.1 µM
SF-268 CNS
  TGI: > 100 µM
SNB-75 CNS
  TGI: > 100 µM
SK-MEL-28 melanoma
  TGI: > 100 µM
NCI/ADR-RES ovarian
  TGI: > 100 µM
HL-60(TB) leukemia
  TGI: > 100 µM
SK-MEL-5 melanoma
  TGI: > 100 µM

## O=C(O)c1ccccc1/C=N\NC1=NCCCCN1
IGROV1 ovarian
  TGI: > 100 µM
MDA-N
  TGI: > 100 µM
SF-268 CNS
  TGI: > 100 µM
K-562 leukemia
  TGI: > 100 µM
SNB-75 CNS
  TGI: > 100 µM
NCI/ADR-RES ovarian
  TGI: > 100 µM
SK-MEL-5 melanoma
  TGI: > 100 µM

## COc1ccc(OC)c2cc(Cc3ccc(N(C)C)cc3)c(=O)c(Cc3ccc(N(C)C)cc3)cc12
IGROV1 ovarian
  TGI: > 100 µM
MDA-N
  TGI: > 100 µM
SF-268 CNS
  TGI: > 100 µM
K-562 leukemia
  TGI: > 100 µM
SNB-75 CNS
  TGI: > 100 µM
SK-MEL-28 melanoma
  TGI: > 100 µM
NCI/ADR-RES ovarian
  TGI: > 100 µM
SK-MEL-5 melanoma
  TGI: > 100 µM

## COC(=O)[C@@H]1N2C(=S)N(c3ccccc3)C(=O)[C@H]2SC1(C)C
IGROV1 ovarian
  TGI: > 100 µM
MDA-N
  TGI: > 100 µM
SF-268 CNS
  TGI: > 100 µM
SNB-75 CNS
  TGI: > 100 µM
SK-MEL-28 melanoma
  TGI: > 100 µM
NCI/ADR-RES ovarian
  TGI: > 100 µM
SK-MEL-5 melanoma
  TGI: > 100 µM

## Cc1ccc(S(=O)(=O)N2CCN(CCN(C)CCN3CCN(S(=O)(=O)c4ccc(C)cc4)CC3)CC2)cc1
IGROV1 ovarian
  TGI: 33.6 µM
MDA-N
  TGI: 39.7 µM
SF-268 CNS
  TGI: 40.1 µM
K-562 leukemia
  TGI: 35.2 µM
SK-MEL-28 melanoma
  TGI: 31.4 µM
NCI/ADR-RES ovarian
  TGI: 43.1 µM
HL-60(TB) leukemia
  TGI: 33.6 µM
SK-MEL-5 melanoma
  TGI: 32.3 µM

## OCCN=C1Nc2ccc(Cl)cc2C(=S)N2CSC[C@@H]12
SF-268 CNS
  TGI: > 100 µM
K-562 leukemia
  TGI: > 100 µM
SK-MEL-28 melanoma
  TGI: > 100 µM
NCI/ADR-RES ovarian
  TGI: > 100 µM
SK-MEL-5 melanoma
  TGI: > 100 µM

## O=C1OS2(OCc3cccc4cccc2c34)c2ccccc21 (stereo not given)
IGROV1 ovarian
  TGI: > 100 µM
MDA-N
  TGI: > 100 µM
SF-268 CNS
  TGI: > 100 µM
K-562 leukemia
  TGI: > 100 µM
SNB-75 CNS
  TGI: > 100 µM
SK-MEL-28 melanoma
  TGI: > 100 µM
NCI/ADR-RES ovarian
  TGI: > 100 µM
HL-60(TB) leukemia
  TGI: > 100 µM
SK-MEL-5 melanoma
  TGI: > 100 µM

## CC(C)(C)OC(=O)CC(NC(=O)OC(C)(C)C)C(=O)NC(CCCCNC(=O)OCc1ccccc1)C(=O)NC(C)(C)C(=O)NCCC(=O)OCc1ccccc1 (stereo not given) (Boc-D(OtBu)K(Cbz)[Aib][βAla]-OBn; configuration not given here)
IGROV1 ovarian
  TGI: > 100 µM
MDA-N
  TGI: > 100 µM
SF-268 CNS
  TGI: > 100 µM
K-562 leukemia
  TGI: > 100 µM
SNB-75 CNS
  TGI: > 100 µM
SK-MEL-28 melanoma
  TGI: > 100 µM
NCI/ADR-RES ovarian
  TGI: > 100 µM
HL-60(TB) leukemia
  TGI: > 100 µM
SK-MEL-5 melanoma
  TGI: > 100 µM

## CCCCCCCCCCCCCCCCNc1nc(=O)n(C2CC(O)C(CO)O2)cc1F (stereo not given)
IGROV1 ovarian
  TGI: 27.6 µM
MDA-N
  TGI: 72.1 µM
SF-268 CNS
  TGI: 22.3 µM
SK-MEL-28 melanoma
  TGI: 28.4 µM
NCI/ADR-RES ovarian
  TGI: 27.1 µM
HL-60(TB) leukemia
  TGI: 27.7 µM
SK-MEL-5 melanoma
  TGI: 48.1 µM

## COC(=O)C(C)Sc1nc2cc(Cl)ccc2s1 (stereo not given)
IGROV1 ovarian
  TGI: > 100 µM
MDA-N
  TGI: > 100 µM
SF-268 CNS
  TGI: > 100 µM
K-562 leukemia
  TGI: > 100 µM
SNB-75 CNS
  TGI: > 100 µM
SK-MEL-28 melanoma
  TGI: > 100 µM
NCI/ADR-RES ovarian
  TGI: > 100 µM
SK-MEL-5 melanoma
  TGI: > 100 µM

## O=C(N=Nc1ccccc1Br)NNc1ccccc1Br
IGROV1 ovarian
  TGI: > 100 µM
MDA-N
  TGI: > 100 µM
SF-268 CNS
  TGI: > 100 µM
K-562 leukemia
  TGI: > 100 µM
SNB-75 CNS
  TGI: > 100 µM
SK-MEL-28 melanoma
  TGI: > 100 µM
HL-60(TB) leukemia
  TGI: 86.7 µM
SK-MEL-5 melanoma
  TGI: > 100 µM

## O=C(NCCO)c1ccc(Cl)cc1
IGROV1 ovarian
  TGI: > 100 µM
MDA-N
  TGI: > 100 µM
SF-268 CNS
  TGI: > 100 µM
K-562 leukemia
  TGI: > 100 µM
SNB-75 CNS
  TGI: > 100 µM
SK-MEL-28 melanoma
  TGI: > 100 µM
NCI/ADR-RES ovarian
  TGI: > 100 µM
SK-MEL-5 melanoma
  TGI: > 100 µM

## O=C(NNC(=S)Nc1ccccc1)c1csc(NC(=S)NC2CCCCC2)n1
IGROV1 ovarian
  TGI: > 100 µM
MDA-N
  TGI: > 100 µM
SF-268 CNS
  TGI: > 100 µM
SNB-75 CNS
  TGI: > 100 µM
NCI/ADR-RES ovarian
  TGI: > 100 µM
HL-60(TB) leukemia
  TGI: > 100 µM
SK-MEL-5 melanoma
  TGI: 38.8 µM

## O=C1NC(N/N=C\c2ccccc2)=N/C1=C/c1ccc(Cl)cc1
IGROV1 ovarian
  TGI: 41.2 µM
MDA-N
  TGI: > 100 µM
SF-268 CNS
  TGI: 94.7 µM
K-562 leukemia
  TGI: > 100 µM
SNB-75 CNS
  TGI: 42.2 µM
SK-MEL-28 melanoma
  TGI: > 100 µM
NCI/ADR-RES ovarian
  TGI: 56.6 µM
SK-MEL-5 melanoma
  TGI: 43.9 µM

## COC(=O)c1cncc2c1CC1C3(C(=O)OC)C=NC(C4C(CO)=CCC43)C21C (stereo not given)
IGROV1 ovarian
  TGI: > 100 µM
MDA-N
  TGI: > 100 µM
SF-268 CNS
  TGI: > 100 µM
SNB-75 CNS
  TGI: > 100 µM
SK-MEL-28 melanoma
  TGI: > 100 µM
NCI/ADR-RES ovarian
  TGI: > 100 µM
HL-60(TB) leukemia
  TGI: > 100 µM
SK-MEL-5 melanoma
  TGI: > 100 µM

## C/C=C/[C@H]1O[C@@](OC)([C@@H](C)[C@H](O)[C@H](C)[C@H]2OC(=O)/C(OC)=C/C(C)=C/[C@@H](C)[C@@H](O)[C@@H](C)[C@@H](O)[C@H](C)C/C(C)=C/C=C/[C@@H]2OC)CC(OC2CC(O)C(OC(N)=O)C(C)O2)[C@@H]1C (stereo not given in full)
IGROV1 ovarian
  TGI: 15.1 µM
MDA-N
  TGI: 0.0486 µM
SF-268 CNS
  TGI: 22.3 µM
SNB-75 CNS
  TGI: 19.5 µM
SK-MEL-28 melanoma
  TGI: 14.2 µM
NCI/ADR-RES ovarian
  TGI: 19.4 µM
SK-MEL-5 melanoma
  TGI: < 0.0433 µM

## O=c1[nH]nc(Cc2ccc(Cl)cc2)n1O
IGROV1 ovarian
  TGI: > 100 µM
MDA-N
  TGI: > 100 µM
SF-268 CNS
  TGI: > 100 µM
K-562 leukemia
  TGI: > 100 µM
SK-MEL-28 melanoma
  TGI: > 100 µM
NCI/ADR-RES ovarian
  TGI: > 100 µM
HL-60(TB) leukemia
  TGI: > 100 µM
SK-MEL-5 melanoma
  TGI: > 100 µM

## COc1cc2ccnc3c2c(c1O)N(C)C=C3
IGROV1 ovarian
  TGI: 26.1 µM
MDA-N
  TGI: > 38.4 µM
SF-268 CNS
  TGI: 36.6 µM
K-562 leukemia
  TGI: > 100 µM
SNB-75 CNS
  TGI: 38.8 µM
SK-MEL-28 melanoma
  TGI: > 66.2 µM
NCI/ADR-RES ovarian
  TGI: 54.5 µM
SK-MEL-5 melanoma
  TGI: 32.5 µM

## NC(CCCCNC(=O)OCc1ccccc1)C(=O)NC(CCCCNC(=O)OCc1ccccc1)C(=O)ON1C(=O)CCC1=O (stereo not given)
IGROV1 ovarian
  TGI: > 100 µM
MDA-N
  TGI: > 100 µM
K-562 leukemia
  TGI: > 100 µM
SNB-75 CNS
  TGI: > 100 µM
SK-MEL-28 melanoma
  TGI: > 100 µM
HL-60(TB) leukemia
  TGI: > 100 µM
SK-MEL-5 melanoma
  TGI: > 100 µM

## OC1OC(c2ccco2)C(F)(F)C(F)(F)C1(F)F (stereo not given)
IGROV1 ovarian
  TGI: > 100 µM
MDA-N
  TGI: > 100 µM
SF-268 CNS
  TGI: > 100 µM
K-562 leukemia
  TGI: > 100 µM
SK-MEL-28 melanoma
  TGI: > 100 µM
NCI/ADR-RES ovarian
  TGI: > 100 µM
HL-60(TB) leukemia
  TGI: > 100 µM
SK-MEL-5 melanoma
  TGI: 89.1 µM

## CCCCSc1n/c(=C\c2ccc(N(C)C)cc2)c2nnnn12
IGROV1 ovarian
  TGI: > 100 µM
MDA-N
  TGI: > 100 µM
SF-268 CNS
  TGI: > 100 µM
K-562 leukemia
  TGI: > 100 µM
SNB-75 CNS
  TGI: > 100 µM
SK-MEL-28 melanoma
  TGI: > 100 µM
NCI/ADR-RES ovarian
  TGI: > 100 µM
HL-60(TB) leukemia
  TGI: > 100 µM

## COC(=O)C(COC(=O)/C=C/c1ccc(OC(C)=O)c(OC(C)=O)c1)OC(=O)/C=C/c1ccc(OC(C)=O)c(OC(C)=O)c1 (stereo not given)
IGROV1 ovarian
  TGI: 23.9 µM
MDA-N
  TGI: 21.7 µM
SF-268 CNS
  TGI: 64.2 µM
K-562 leukemia
  TGI: 31.2 µM
SK-MEL-28 melanoma
  TGI: 30.9 µM
NCI/ADR-RES ovarian
  TGI: 50.5 µM
SK-MEL-5 melanoma
  TGI: 28.3 µM

## CCOC(=O)c1c(N2CCOCC2)[nH]c(=O)c(C(c2ccc(OC)cc2)c2c(O)c(C(=O)OCC)c(N3CCOCC3)[nH]c2=O)c1O
MDA-N
  TGI: > 100 µM
SF-268 CNS
  TGI: > 100 µM
K-562 leukemia
  TGI: > 100 µM
SNB-75 CNS
  TGI: > 100 µM
SK-MEL-28 melanoma
  TGI: > 100 µM
NCI/ADR-RES ovarian
  TGI: > 100 µM
SK-MEL-5 melanoma
  TGI: > 100 µM

## CSC(=NC1=NC(C(F)(F)F)(C(F)(F)F)N=C(c2ccccc2)O1)SC
MDA-N
  TGI: 41.7 µM
SF-268 CNS
  TGI: > 100 µM
K-562 leukemia
  TGI: > 100 µM
SNB-75 CNS
  TGI: 18.9 µM
SK-MEL-28 melanoma
  TGI: > 100 µM
NCI/ADR-RES ovarian
  TGI: 90.9 µM
HL-60(TB) leukemia
  TGI: 64 µM
SK-MEL-5 melanoma
  TGI: 33.1 µM
